From PubChem BioAssay AID1996 come the findings set out here.

In brackets after ≈: the same amount, converted by molar mass. Bounds are passed on as bounds.

For this data set the following is noted: buffer; pH 7.4; 200.0 µM.
In general, kinetic solubility refers to solubility judged after dilution from a stock solution rather than from solid. `CCCCC(=O)Nc1ccc(C(=O)N(CC)c2ccccc2C)cc1` displayed a solubility (kinetic) of 0.0079 mg/mL (≈ 23.3 µM).
Consider `CC(=O)c1ccc(NC(=O)C2C3CCC(C3)C2C(=O)O)cc1` (stereo not given), for which the solubility (kinetic) was over 0.0452 mg/mL.
For the molecule `Cc1nc2sc(C(=O)Nc3ccccc3)c(N)c2c(C)c1[N+](=O)[O-]`, the solubility (kinetic) was found to be 0.0008 mg/mL (≈ 2.34 µM).
Regarding `COc1ccccc1Oc1ccc(NC(=O)Cc2ccccc2)cc1`, the solubility (kinetic) is under 0.0007 mg/mL.
`O=C(NCN1CCOCC1)c1cnccn1` displayed a kinetic solubility of 0.0306 mg/mL (≈ 138 µM).
`Cc1ccc(OCC(=O)Nc2ccon2)c([N+](=O)[O-])c1` had a solubility (kinetic) of 0.0045 mg/mL (≈ 16.2 µM).
In turn, `OCCC1CN(CC#Cc2ccccc2)CCN1C1CCCC1` (stereo not given) showed a solubility (kinetic) of over 0.0469 mg/mL.
For `COc1ccc2c(c1)c(C(C)=O)c(C)n2CCc1ccc(OC)c(OC)c1`, the kinetic solubility was 0.0508 mg/mL (≈ 138 µM).
Take `O=C(CS(=O)(=O)Cc1ccccc1)NCc1ccccc1Cl`: the kinetic solubility was over 0.0507 mg/mL.
Turning to `COc1cc(NC(=O)c2ccc(N3CCCC3=O)cc2)cc(OC)c1`, the solubility (kinetic) was determined as 0.0104 mg/mL (≈ 30.6 µM).
Under `O=C(CSCc1ccc(Cl)cc1)NCCSCc1ccco1` stands 0.0363 mg/mL (≈ 102 µM); under `CC(CCc1ccccc1)NC(=O)c1cccc(F)c1` (stereo not given), 0.0366 mg/mL (≈ 135 µM); under `COC(=O)c1cnc(Oc2c(Cl)cc(N)cc2Cl)cc1C(F)(F)F`, 0.0153 mg/mL (≈ 40.1 µM).
In turn, `CC(C)(C)NC(=O)COC(=O)c1ccc(Cl)cc1O` had a kinetic solubility of 0.0073 mg/mL (≈ 25.5 µM).
Then `COc1ccc(CCNC(=O)C2(c3ccccc3)CC2)cc1`, with 0.0438 mg/mL (≈ 148 µM); and `O=C(COC(=O)/C=C/c1ccccc1)NCc1ccc2c(c1)OCO2`, with 0.0048 mg/mL (≈ 14.1 µM).
With `COc1ccc(-c2[nH]c3ccccc3c2SCCN)cc1`, the solubility (kinetic) amounted to 0.0319 mg/mL (≈ 107 µM).
For `O=[N+]([O-])c1ccc(Cl)cc1N1CCOCC1`, the kinetic solubility was over 0.0364 mg/mL.
`COc1ccc(OC)c(Nc2ncnc3sccc23)c1` yielded a kinetic solubility of 0.0422 mg/mL (≈ 147 µM).
`O=C(Nc1cccc([N+](=O)[O-])c1)c1ccccc1` had a kinetic solubility of 0.0096 mg/mL (≈ 39.6 µM).
Take `O=S(=O)(NCc1ccc2c(c1)OCO2)c1ccccc1F`: the solubility (kinetic) stood at 0.0371 mg/mL (≈ 120 µM).
Turning to `COc1cccc(C(=O)NC2CC(C)(C)NC(C)(C)C2)c1OC`, the solubility (kinetic) was over 0.0481 mg/mL.
As to `ON=C1c2ccccc2-c2ccccc21`, the kinetic solubility came out at 0.0013 mg/mL (≈ 6.66 µM).
Molecule `Cc1cccc(NC(=O)Nc2ccc([N+](=O)[O-])cc2)n1` had a solubility (kinetic) of under 0.0001 mg/mL.
The molecule `CC(=O)Oc1ccc(-c2nc3cc(Cl)ccc3c(=O)o2)cc1` displayed a kinetic solubility of 0.0017 mg/mL (≈ 5.38 µM).
`CC(=O)c1c(C)[nH]c(C(=O)CSc2ccc(F)cc2)c1C` had a solubility (kinetic) of 0.0025 mg/mL (≈ 8.19 µM).
Turning to `c1ccc(-c2ccc(-c3ccccn3)s2)nc1`, the solubility (kinetic) is 0.0042 mg/mL (≈ 17.6 µM).
Under `O=c1oc2c(O)cccc2cc1-c1nc2ccccc2[nH]1` stands 0.0011 mg/mL (≈ 3.95 µM); under `CCSc1nnc(SCC(=O)NC2CCCCC2)s1`, over 0.0476 mg/mL; under `O=C(CCSCc1ccccc1)Nc1ccc2c(c1)OCCO2`, 0.0338 mg/mL (≈ 103 µM).
Regarding `Cc1ccc(S(=O)(=O)NCCNc2ccc([N+](=O)[O-])cc2)cc1`, the solubility (kinetic) was determined as 0.0328 mg/mL (≈ 97.8 µM).
Under `Cc1ccc(NC(=O)CNC(=O)c2ccco2)cc1Cl` stands 0.007 mg/mL (≈ 23.9 µM); under `CNc1nc2c(Cl)cc(Cl)cc2s1`, under 0.0002 mg/mL; under `COc1ccc(CNC(=O)C(NC(C)=O)C(C)C)cc1OC` (stereo not given), over 0.0463 mg/mL.
Under `O=C(Oc1ccc(C(=S)N2CCOCC2)cc1)c1ccccc1[N+](=O)[O-]` stands 0.0168 mg/mL (≈ 45.1 µM); under `CCC(C(=O)OCC(=O)N1C(C)CCCC1C)c1ccccc1` (stereo not given), 0.0451 mg/mL (≈ 142 µM).
As to `CC1(C)CNc2cc(N)ccc2S1`, the kinetic solubility is 0.0263 mg/mL (≈ 135 µM). Against the preceding molecule, the solubility kinetic is about 1.7-fold lower.
`Nc1ccc(CCC(=O)N2CCCC2)cc1` registered a kinetic solubility of over 0.0327 mg/mL.
With `O=Cc1cnc2ccccc2c1-c1ccccc1`, the solubility (kinetic) came out at 0.0278 mg/mL (≈ 119 µM).
Then `O=S(=O)(Nc1ccc(-c2cnco2)cc1)c1ccccc1`, with 0.0436 mg/mL (≈ 145 µM); and `CC(=O)Nc1ccc(NC(=O)c2ccccc2Nc2ccccc2)cc1`, with 0.0044 mg/mL (≈ 12.7 µM); and `C1N2CN3CN1CN(C2)C3`, with over 0.021 mg/mL.
For the molecule `COc1ccc(CCC(=O)OCc2csc(CC(=O)Nc3ccc(C)cc3)n2)cc1OC`, the kinetic solubility came to 0.0099 mg/mL (≈ 21.8 µM).
`Nc1ccc(C(=O)O)c(O)c1` came in with a kinetic solubility of over 0.023 mg/mL.
As for `CCCc1cc(C(=O)Nc2cc(C)ccc2O)no1`, the kinetic solubility is 0.0012 mg/mL (≈ 4.61 µM).
Turning to `CN(CC(=O)Nc1cccc(Cl)c1)C1=NS(=O)(=O)c2ccccc21`, the solubility (kinetic) worked out at 0.0037 mg/mL (≈ 10.2 µM).
For the molecule `COc1cccc(OCC(=O)NC2CCS(=O)(=O)C2)c1` (stereo not given), the kinetic solubility was over 0.0449 mg/mL.
`O=C(O)c1ccc(CSc2nc3ccccc3[nH]2)cc1` had a solubility (kinetic) of 0.0392 mg/mL (≈ 138 µM).
With `Cc1ccc(C(=O)CCC(=O)Nc2ccccc2C)c(C)c1`, the solubility (kinetic) was 0.0013 mg/mL (≈ 4.4 µM).
Molecule `N#Cc1cccnc1N1CCC(C(N)=O)CC1` registered a kinetic solubility of over 0.0345 mg/mL.
Then `CN1CCN(c2c([N+](=O)[O-])cnc3ccccc23)CC1.Cl`, with over 0.0463 mg/mL; and `CC1(C)CC(NC(=O)C(=O)NCCc2ccccc2)CC(C)(C)N1`, with over 0.0497 mg/mL; and `CC(=O)Nc1cccc(NC(=O)c2cccc3cccnc23)c1`, with 0.0192 mg/mL (≈ 62.9 µM).
Under `C=CCNC(=O)CN1c2cccc3cccc(c23)S1(=O)=O` stands 0.0404 mg/mL (≈ 134 µM); under `Cn1nc(C(C)(C)C)cc1C(=O)O`, over 0.0273 mg/mL.
On to `CCOC(=O)N1CCc2[nH]c3ccc(C)cc3c2C1`, for which the solubility (kinetic) is 0.0159 mg/mL (≈ 61.6 µM).
`COC(=O)c1ccc(COc2ccc(/C=N/O)cc2)o1` gave a solubility (kinetic) of over 0.0413 mg/mL.
As for `CCCN(Cc1cc2cc(C)ccc2[nH]c1=O)C(=O)c1ccccn1`, the kinetic solubility was over 0.0503 mg/mL.
In turn, `O=C(CCNC(=O)c1ccc([N+](=O)[O-])cc1)NCc1ccco1` yielded a kinetic solubility of over 0.0476 mg/mL.
`COC(=O)c1cc(C(=O)CC(C)C)c[nH]1` yielded a solubility (kinetic) of over 0.0314 mg/mL.
Under `O=C(COC(=O)c1ccccc1F)NC(=O)NC1CCCC1` stands over 0.0462 mg/mL; under `Nc1nc(CCl)nc(N(c2ccccc2)c2ccccc2)n1`, 0.0075 mg/mL (≈ 24.1 µM); under `O=C(NCc1csc(-c2cccs2)n1)c1ccsc1`, 0.0459 mg/mL (≈ 150 µM).
`NC(=S)c1cc2cc(Br)ccc2oc1=O` returned a solubility (kinetic) of under 0.0006 mg/mL.
With `Cc1cc(C)n2nc(SCc3ccc(C#N)cc3)nc2n1`, the solubility (kinetic) is over 0.0443 mg/mL.
Then `CC(C)N1C(=O)C(O)(C2COC(C)(C)CC2=O)c2ccccc21` (stereo not given), with over 0.0476 mg/mL; and `O=C(CN1C(=O)c2ccccc2S1(=O)=O)NCCc1ccc(F)cc1`, with over 0.0544 mg/mL.
Then `CC(=O)c1c(C)[nH]c(C(=O)OCC(=O)c2ccc3c(c2)NC(=O)CO3)c1C`, with 0.0105 mg/mL (≈ 28.4 µM); and `CCOc1ccccc1Nc1nnc(SCC(=O)NC2CC2)s1`, with over 0.0526 mg/mL.
In turn, `O=C(c1cccc2nc3ccccc3nc12)N1CCOCC1` had a kinetic solubility of 0.0409 mg/mL (≈ 139 µM).
`CCOc1ccccc1CN1C2CCC1CC(c1ccc(C)cc1)C2` (stereo not given) returned a solubility (kinetic) of 0.035 mg/mL (≈ 104 µM).
Under `COC(=O)C1=C2SCC(=O)N2C(N)=C(C#N)C1` stands over 0.0377 mg/mL; under `COc1ccc(-c2nc3ccccc3c(=O)n2CC(C)C)cc1`, 0.0383 mg/mL (≈ 124 µM); under `CC1CCCCN1C(=O)CSc1nnc2ccccn12` (stereo not given), over 0.0436 mg/mL.
In the case of `O=C(Nc1ccc(Cl)c(Cl)c1)Nc1ccccn1`, the solubility (kinetic) is under 0.0002 mg/mL.
With `COc1ccc(S(=O)(=O)n2cnc3ccccc32)cc1OC`, the kinetic solubility is over 0.0478 mg/mL.
As for `O=S(=O)(Nc1ccon1)c1ccc(F)c(F)c1`, the solubility (kinetic) was 0.0259 mg/mL (≈ 99.5 µM).
In turn, `CCCCOc1ccc(C(=O)CCN2CCCCC2)cc1.Cl` yielded a kinetic solubility of over 0.0489 mg/mL.
With `CNC(=S)N(CCCn1ccnc1)Cc1c(F)cccc1Cl`, the solubility (kinetic) came to 0.049 mg/mL (≈ 144 µM).
For the molecule `O=C(CN1C(=O)C(=O)c2ccccc21)c1ccccc1`, the solubility (kinetic) was 0.0338 mg/mL (≈ 127 µM).
The molecule `Cc1csc(NC(=O)CSC2=NCCS2)n1` yielded a kinetic solubility of 0.0405 mg/mL (≈ 148 µM).
The molecule `CCc1nc2cccnc2n1-c1ccc(CC(=O)O)cc1` showed a kinetic solubility of over 0.0422 mg/mL.
Consider `c1ccc2c(c1)[nH]c1cnccc12`, for which the kinetic solubility is over 0.0252 mg/mL.
`COc1cccc(CN2CCCCC2C(=O)O)c1` (stereo not given) registered a kinetic solubility of over 0.0374 mg/mL.
`O=C(Nc1cccc(F)c1)C1CCN(C(=O)NCc2ccccc2)CC1` yielded a kinetic solubility of 0.0092 mg/mL (≈ 25.9 µM).
In the case of `Cc1[nH]c2ccccc2c1C(=O)CSc1cccc[n+]1[O-]`, the kinetic solubility was 0.0408 mg/mL (≈ 137 µM).
Turning to `O=S(=O)(c1cccc(C(F)(F)F)c1)N1CCN(c2cnccn2)CC1`, the kinetic solubility came out at 0.0251 mg/mL (≈ 67.4 µM).
Under `c1ccc2c(c1)CC1(CCCC1)N=C2N1CCOCC1` stands 0.0355 mg/mL (≈ 131 µM); under `O=c1cc(CN2CCOCC2)c2cc(Cl)c(O)cc2o1`, over 0.0444 mg/mL.
In turn, `N/C(=N/OC(=O)c1cccc([N+](=O)[O-])c1)c1cccc([N+](=O)[O-])c1` gave a kinetic solubility of 0.0005 mg/mL (≈ 1.51 µM).
`O=C(NCc1ccncc1)C(=O)Nc1nccs1` gave a solubility (kinetic) of over 0.0393 mg/mL.
In the case of `CN(C)CCNC(=O)C(=O)Nc1cc2c3c(c1)CCC(=O)N3CCC2`, the kinetic solubility was found to be 0.0509 mg/mL (≈ 148 µM).
The molecule `Cc1ccc(NC(=S)N(CCN(C)C)Cc2cccs2)cc1` showed a solubility (kinetic) of 0.0122 mg/mL (≈ 36.6 µM). This solubility kinetic is about 4.2-fold lower than that of the molecule before.
Turning to `O=C1COc2ccc(C(=O)COC(=O)c3ccccc3Cl)cc2N1`, the solubility (kinetic) worked out at 0.0045 mg/mL (≈ 13 µM).
In turn, `COC(=O)c1c(C)oc(C)c1S(=O)(=O)Nc1ccccc1` displayed a kinetic solubility of over 0.0464 mg/mL.
`Cc1ccc2c(c1)sc(=NC(=O)C1CC1)n2C` registered a kinetic solubility of 0.0155 mg/mL (≈ 62.9 µM).
`CNc1nc(N)c([N+](=O)[O-])c(NCC2CCCO2)n1` (stereo not given) returned a solubility (kinetic) of over 0.0402 mg/mL.
`O=[N+]([O-])c1ccc(CN2CC=C(c3ccccc3)CC2)cc1` showed a solubility (kinetic) of 0.0068 mg/mL (≈ 23.1 µM).
In turn, `O=[N+]([O-])c1ccc(N2CCN(c3ccc(F)cc3)CC2)nc1` gave a kinetic solubility of 0.0003 mg/mL (≈ 0.992 µM).
For the molecule `Cc1cc(C)cc(N2CCCn3c2nc2c3c(=O)[nH]c(=O)n2C)c1`, the kinetic solubility is 0.0033 mg/mL (≈ 10.1 µM).
`CC1(C2CC2)NC(=O)N(CC(=O)Nc2ccc(F)cc2F)C1=O` (stereo not given) registered a solubility (kinetic) of over 0.0485 mg/mL.
With `COc1ccc(N2C(=O)CC(C)(C)CC2=O)cc1OC`, the kinetic solubility was over 0.0416 mg/mL.
On to `CCn1c(SCC(=O)Nc2ccccc2OC)nc(O)cc1=O`, for which the solubility (kinetic) worked out at 0.0477 mg/mL (≈ 142 µM).
`CC(C)(/C=N/O)/[N+]([O-])=C/c1ccccc1`: the kinetic solubility is over 0.0309 mg/mL.
With `COc1ccc(NS(=O)(=O)c2ccc(O)c(NS(=O)(=O)c3ccc(NC(C)=O)cc3)c2)cc1`, the solubility (kinetic) was over 0.0737 mg/mL.
